Source: PubChem BioAssay (NCI)
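Test compounds were applied to cells in 96-well plates for 48 hours at 5 doses. The concentration for full growth arrest is given as TGI.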

Key:
Assay in all cases: growth of human tumour cells (NCI), 48 h
786-0 renal = tested on: 786-0 renal
A498 renal = tested on: A498 renal
A549 NSCLC = tested on: A549 NSCLC
ACHN renal = tested on: ACHN renal
BT-549 breast = tested on: BT-549 breast
CAKI-1 renal = tested on: CAKI-1 renal
CCRF-CEM leukemia = tested on: CCRF-CEM leukemia
COLO 205 colon = tested on: COLO 205 colon
EKVX NSCLC = tested on: EKVX NSCLC
HCT-116 colon = tested on: HCT-116 colon
HCT-15 colon = tested on: HCT-15 colon
HL-60(TB) leukemia = tested on: HL-60(TB) leukemia
HOP-62 NSCLC = tested on: HOP-62 NSCLC
HOP-92 NSCLC = tested on: HOP-92 NSCLC
HS 578T breast = tested on: HS 578T breast
HT29 colon = tested on: HT29 colon
IGROV1 ovarian = tested on: IGROV1 ovarian
K-562 leukemia = tested on: K-562 leukemia
KM12 colon = tested on: KM12 colon
LOX IMVI melanoma = tested on: LOX IMVI melanoma
M14 melanoma = tested on: M14 melanoma
MALME-3M melanoma = tested on: MALME-3M melanoma
MCF7 breast = tested on: MCF7 breast
MDA-MB-231 breast = tested on: MDA-MB-231 breast
MDA-MB-435 = tested on: MDA-MB-435
MDA-N = tested on: MDA-N
MOLT-4 leukemia = tested on: MOLT-4 leukemia
NCI-H226 lung = tested on: NCI-H226 lung
NCI-H23 lung = tested on: NCI-H23 lung
NCI-H460 lung = tested on: NCI-H460 lung
NCI/ADR-RES ovarian = tested on: NCI/ADR-RES ovarian
OVCAR-3 ovarian = tested on: OVCAR-3 ovarian
OVCAR-4 ovarian = tested on: OVCAR-4 ovarian
OVCAR-5 ovarian = tested on: OVCAR-5 ovarian
OVCAR-8 ovarian = tested on: OVCAR-8 ovarian
PC-3 prostate = tested on: PC-3 prostate
RXF 393 renal = tested on: RXF 393 renal
SF-295 CNS = tested on: SF-295 CNS
SF-539 CNS = tested on: SF-539 CNS
SK-MEL-2 melanoma = tested on: SK-MEL-2 melanoma
SK-MEL-28 melanoma = tested on: SK-MEL-28 melanoma
SK-MEL-5 melanoma = tested on: SK-MEL-5 melanoma
SK-OV-3 ovarian = tested on: SK-OV-3 ovarian
SN12C renal = tested on: SN12C renal
SNB-19 CNS = tested on: SNB-19 CNS
SNB-75 CNS = tested on: SNB-75 CNS
SR leukemia = tested on: SR leukemia
SW-620 colon = tested on: SW-620 colon
TK-10 renal = tested on: TK-10 renal
U251 CNS = tested on: U251 CNS
UACC-257 melanoma = tested on: UACC-257 melanoma
UACC-62 melanoma = tested on: UACC-62 melanoma
UO-31 renal = tested on: UO-31 renal
DU-145 prostate = tested on: DU-145 prostate
HCC-2998 colon = tested on: HCC-2998 colon
NCI-H522 lung = tested on: NCI-H522 lung
RPMI-8226 leukemia = tested on: RPMI-8226 leukemia
SF-268 CNS = tested on: SF-268 CNS

Structure (SMILES): CC1CCC2C(C)(C)CC3(C)CCC1C23O (configuration not stated)
- TGI (786-0 renal): 29 µM
- TGI (A498 renal): 36.7 µM
- TGI (A549 NSCLC): 37 µM
- TGI (ACHN renal): 29.7 µM
- TGI (BT-549 breast): 32 µM
- TGI (CAKI-1 renal): 27.2 µM
- TGI (CCRF-CEM leukemia): 21.7 µM
- TGI (COLO 205 colon): 33.2 µM
- TGI (EKVX NSCLC): 28.3 µM
- TGI (HCT-116 colon): 27.9 µM
- TGI (HCT-15 colon): 30.6 µM
- TGI (HL-60(TB) leukemia): 5.57 µM
- TGI (HOP-62 NSCLC): 30.6 µM
- TGI (HOP-92 NSCLC): 26.4 µM
- TGI (HS 578T breast): 30.3 µM
- TGI (HT29 colon): 29.9 µM
- TGI (IGROV1 ovarian): 29.4 µM
- TGI (K-562 leukemia): 40.9 µM
- TGI (KM12 colon): 29.1 µM
- TGI (LOX IMVI melanoma): 28.9 µM
- TGI (M14 melanoma): 29.4 µM
- TGI (MALME-3M melanoma): 26.2 µM
- TGI (MCF7 breast): 29.3 µM
- TGI (MDA-MB-231 breast): 29.7 µM
- TGI (MDA-MB-435): 30.5 µM
- TGI (MDA-N): 25.3 µM
- TGI (MOLT-4 leukemia): 28 µM
- TGI (NCI-H226 lung): 29.9 µM
- TGI (NCI-H23 lung): 29.6 µM
- TGI (NCI-H460 lung): 30.7 µM
- TGI (NCI/ADR-RES ovarian): 28 µM
- TGI (OVCAR-3 ovarian): 29.9 µM
- TGI (OVCAR-4 ovarian): 49.6 µM
- TGI (OVCAR-5 ovarian): 34.9 µM
- TGI (OVCAR-8 ovarian): 34.4 µM
- TGI (PC-3 prostate): 25.7 µM
- TGI (RXF 393 renal): 30.8 µM
- TGI (SF-295 CNS): 25.8 µM
- TGI (SF-539 CNS): 31.6 µM
- TGI (SK-MEL-2 melanoma): 27.3 µM
- TGI (SK-MEL-28 melanoma): 29.8 µM
- TGI (SK-MEL-5 melanoma): 27.7 µM
- TGI (SK-OV-3 ovarian): 89.2 µM
- TGI (SN12C renal): 32.6 µM
- TGI (SNB-19 CNS): > 100 µM
- TGI (SNB-75 CNS): 48.4 µM
- TGI (SR leukemia): 29.1 µM
- TGI (SW-620 colon): 30.2 µM
- TGI (TK-10 renal): 31.6 µM
- TGI (U251 CNS): 29.5 µM
- TGI (UACC-257 melanoma): 29.7 µM
- TGI (UACC-62 melanoma): 28.2 µM
- TGI (UO-31 renal): 30 µM

Structure (SMILES): CCOC(=O)C1OC(=O)CC1C1(C(=O)OCC)C=CC(=O)O1 (configuration not stated)
- TGI (786-0 renal): > 100 µM
- TGI (A549 NSCLC): > 100 µM
- TGI (ACHN renal): > 100 µM
- TGI (BT-549 breast): > 100 µM
- TGI (CAKI-1 renal): > 100 µM
- TGI (CCRF-CEM leukemia): > 100 µM
- TGI (COLO 205 colon): > 100 µM
- TGI (DU-145 prostate): > 100 µM
- TGI (EKVX NSCLC): > 100 µM
- TGI (HCC-2998 colon): > 100 µM
- TGI (HCT-116 colon): > 100 µM
- TGI (HCT-15 colon): > 100 µM
- TGI (HL-60(TB) leukemia): > 100 µM
- TGI (HOP-62 NSCLC): > 100 µM
- TGI (HOP-92 NSCLC): > 100 µM
- TGI (HT29 colon): > 100 µM
- TGI (IGROV1 ovarian): > 100 µM
- TGI (K-562 leukemia): > 100 µM
- TGI (KM12 colon): > 100 µM
- TGI (LOX IMVI melanoma): 93.3 µM
- TGI (M14 melanoma): > 100 µM
- TGI (MALME-3M melanoma): > 100 µM
- TGI (MCF7 breast): > 100 µM
- TGI (MDA-N): > 100 µM
- TGI (MOLT-4 leukemia): > 100 µM
- TGI (NCI-H226 lung): > 100 µM
- TGI (NCI-H23 lung): > 100 µM
- TGI (NCI-H460 lung): 58.1 µM
- TGI (NCI-H522 lung): > 100 µM
- TGI (NCI/ADR-RES ovarian): > 100 µM
- TGI (OVCAR-3 ovarian): > 100 µM
- TGI (OVCAR-4 ovarian): > 100 µM
- TGI (OVCAR-5 ovarian): > 100 µM
- TGI (OVCAR-8 ovarian): > 100 µM
- TGI (PC-3 prostate): > 100 µM
- TGI (RPMI-8226 leukemia): > 100 µM
- TGI (RXF 393 renal): > 100 µM
- TGI (SF-268 CNS): > 100 µM
- TGI (SF-295 CNS): > 100 µM
- TGI (SF-539 CNS): > 100 µM
- TGI (SK-MEL-2 melanoma): > 100 µM
- TGI (SK-MEL-28 melanoma): > 100 µM
- TGI (SK-MEL-5 melanoma): > 100 µM
- TGI (SK-OV-3 ovarian): > 100 µM
- TGI (SN12C renal): > 100 µM
- TGI (SNB-19 CNS): > 100 µM
- TGI (SNB-75 CNS): > 100 µM
- TGI (SR leukemia): > 100 µM
- TGI (SW-620 colon): > 100 µM
- TGI (TK-10 renal): > 100 µM
- TGI (U251 CNS): > 100 µM
- TGI (UACC-257 melanoma): > 100 µM
- TGI (UACC-62 melanoma): > 100 µM
- TGI (UO-31 renal): > 100 µM
